Test results reported in paper PMC8532147, “Dual Stimuli-Responsive Dynamic Covalent Peptide Tags: Toward Sequence-Controlled Release in Tumor-like Microenvironments” (Journal of the American Chemical Society, 2021).
Entries after “also recorded” stand apart in the source; their conditions may differ. One block for each molecule: values may come before it. Square brackets hold non-standard residues; d marks the D form. Ends that are not written are not given here. Peptide text beside a SMILES is read from it. Phe(4-B(OH)2) = N[C@@H](Cc1ccc(B(O)O)cc1)C(=O)O; Dopa = N[C@@H](Cc1ccc(O)c(O)c1)C(=O)O

T1: DyLight488 labeled peptide DL488-BSCSB
T1 chain: DyLight488-[Phe(4-B(OH)2)]SCS[Phe(4-B(OH)2)]

B1: OSCSO (peptide)
chain: [Dopa]SCS[Dopa]

Legend:
A549 cells = test: Cell uptake by confocal microscopy; format: cell-based, human; details: 24 h, 37 °C
Procedure: For cell uptake studies, A549 cell line was selected, which is a model of alveolar Type II pulmonary epithelium.[35] The uptake was performed under two conditions to test the robustness of the resultant conjugate, which represents the extracellular conditions found in different stages of cancer progression.[36] Internalization of the conjugate was first studied in standard cell culture media (∼ neutral pH). A solution of DL488 ≃ TAT was applied directly to A549 cells to a final concentration of 10 μM, without any further workup or further purification. As additional controls, (1) a conjugate DL488-BSCSB ≃ OSCSO incubated with free TAT sequence and (2) a conjugate without the disulfide bridge (DL488-BSGSB) ∼ (TAT-OSCSO) where cysteine was replaced by glycine in one of the sequences were both applied at 10 μM (Figure 7a). […] Next, we proceeded to verify that the peptide tags are robust even under metastatic tumor-like microenvironment, where acidosis is a hallmark. Consequently, the low extracellular pH can result in a more invasive phenotype (Figure 7c), which is more challenging to treat.[28] First, A549 cancer cells were subjected to acute acidification to derive cells cultured at pH 6.4.[37]−[39] Thereafter DL488 ≃ TAT and controls 1 and 2 were applied at 10 μM for 24 h. […] Therefore, the linker chemistry can potentially be adopted for more invasive cancer phenotypes.
Sample preparation protocol. 20 µL of 2 mM solutions of DL488-BSCSB and either OSCSO, OSCSO and TAT or TAT-OSCSO were mixed together to obtain 40 µL of 1 mM solution of preassembled conjugate (in 10 mM phosphate buffer pH = 8 with 10% DMSO). The conjugate was subsequently oxidized by addition of 1 µL 75 mM potassium peroxymonosulfate (Oxone®) solution in 100 mM PB, pH = 7.4 to obtain its final concentration as 1.8 mM. Prepared conjugate was used directly for the cell studies without […]
Cell culture. The human cell line A549 from adenocarcinomic lung tissue (American Type Culture Collection, Manassas, VA, US) was cultured in Dulbecco's modified Eagle medium (DMEM 4.5 g/L D-Glucose, L-Glutamine; Gibco by ThermoFisher Scientific, Germany) supplemented with 10% fetal calf serum (FCS; Sigma Aldrich, Germany) and 1% Penicillin/Streptomycin (Invitrogen, Germany) at a humified atmosphere with 37 °C and 5% CO2 . Fresh culture medium was replaced every two days and cells were subcultured after reaching 80% confluence.
Evaluation of cell uptake. A549 cells were detached by TrypLE Select (Gibco by ThermoFisher Scientific, Germany) and centrifuged 5 min at 1000 rpm. […]

BSCSB = test: Isothermal titration calorimetry (ITC), BSCSB titrated into the ligand peptide; format: binding; details: for binding in ITC at pH 7.4 (ligand comparison): pH 7.4, 25 °C, BSCSB titrated to YSCSY or OSCSO as ligand
Procedure: The pH-reversible interactions of boronic acid and catechol groups, the formation of disulfides, as well as the responsiveness of the bis-peptide system were further investigated under different conditions (Figure 5). First, the boronic acid condensation with the complementary catechol and the thermodynamic properties were assessed under pH conditions that are relevant to physiological conditions, i.e., pH = 7.4 typical for extracellular environment of normal tissues and pH 6 for acidic intracellular compartments such as endosomes.[28] Equimolar concentrations of the reacting tags were applied to investigate the thermodynamic parameters associated with the formation of the heterodimer. DyLight488 labeled peptide (DL488-BSCSB) was synthesized by connecting the commercially available NHS-ester of this dye to the N-terminus of the BSCSB sequence to enable a microscale thermophoresis (MST) experiment, in which the dissociation constant could be determined. MST measurements were performed by titrating DL488-BSCSB (2 μM) against the complementary OSCSO peptide binding partner (76 nM to 5 mM). […] Such an improvement could be explained by the lack of electrostatic repulsion due to the presence of the electroneutral serine (at physiological pH) in the sequence. […] To assess the binding constant at physiological pH and to understand the type of complex formed, isothermal titration calorimetry (ITC) measurements were performed. The raw data were plotted as heat rate versus time at pH = 6 and 7.4. (SI, Figure S16). […]
Additionally the same amount of BSCSB solution was titrated into pure water to determine the heat of dilution for reference. As a control another sequence was checked for binding with L-tyrosines instead of L-DOPA and measured as before mentioned. […]
Figure S 16: ITC titrations performed at a) pH = 7.4 and b) 6.0, showing the heat rate signals after base line correction. No heat change different from the dilution (blank) was detected for pH = 6.0. […]

[1] = quoted as stand-in for the pKa of 4-borono-phenylalanine; cited from earlier work
[2] = target: T1, DyLight488 labeled peptide DL488-BSCSB; test: MST; DL488-BSCSB (2 μM) held constant, OSCSO titrated (76 nM to 5 mM); 100 mM phosphate buffer pH 6.0 in the presence of TCEP; the legend of Figure 5b calls it a fluorescence quenching assay; details: both partners purified
[3] = target: T1, DyLight488 labeled peptide DL488-BSCSB; test: MST; DL488-BSCSB (2 μM) held constant, OSCSO titrated (76 nM to 5 mM); 100 mM phosphate buffer pH 7.4 in the presence of TCEP; the legend of Figure 5b calls it a fluorescence quenching assay; details: both partners purified
OSCSO = target: B1; test: ITC; BSCSB titrated to OSCSO (2Red); 100 mM phosphate buffer pH 7.4; independent binding model fit; details: both partners purified
[4] = standard cell culture media (∼ neutral pH), 10 μM, triplicates

Molecule: (DL488-BSGSB) ∼ (TAT-OSCSO) (sidechain bridge or staple) [control 2]
uptake in A549 cells (A549 cells; acidic media pH 6.4, 10 μM, no CO2, triplicates): not internalized
uptake in A549 cells (A549 cells; [4]): no uptake was observed

Molecule: NC(=O)[C@H](Cc1ccc(O)c(O)c1)NC(=O)[C@H](CO)NC(=O)[C@H](CS)NC(=O)[C@H](CO)NC(=O)[C@@H](N)Cc1ccc(O)c(O)c1 [OSCSO] (H-[Dopa]SCS[Dopa]-NH2)
binding in ITC at pH 6 (BSCSB; pH 6.0, 100 mM phosphate buffer, 25 °C, BSCSB titrated into OSCSO, compared with heat of dilution): No heat change different from the dilution; also recorded: lack of binding
binding in ITC at pH 7.4 (ligand comparison) (BSCSB): significant heat change

binding in ITC at pH 7.4 (ligand comparison) (BSCSB): No binding
Molecule: YSCSY

Molecule: DL488-BSCSB≃OSCSO+TAT (bicyclic or more) [control 1]
uptake in A549 cells (A549 cells; [4]): no uptake was observed

Molecule: Cc1ccc(B(O)O)cc1 [4-methylphenylboronic acid]
pKa [1]: ~8.9

Molecule: DL488-BSCSB≃OSCSO-TAT (bicyclic or more) [DL488 ≃ TAT, dual responsive conjugate of TAT-OSCSO and DL488-BSCSB after addition of Oxone]
uptake in A549 cells (A549 cells; [4]): significant uptake

Molecule: B1
Kd [2]: > 440000 nM
Kd [3]: 1800 ± 400 nM

Kd (OSCSO): 1800 ± 400 nM
stoichiometry N (OSCSO): 1.2 ± 0.1
Molecule: [Phe(4-B(OH)2)]SCS[Phe(4-B(OH)2)] [BSCSB]
